ChEMBL document CHEMBL4190383, “Hit discovery of Mycobacterium tuberculosis inosine 5'-monophosphate dehydrogenase, GuaB2, inhibitors” (Bioorg Med Chem Lett, 2018)
In brackets after ≈: the same amount, converted by molar mass. Activity calls are given as the source filed them. No cut-off for these calls is given here.

Assays:
[1] = test system: Mycobacterium tuberculosis; test: Antimicrobial activity against Mycobacterium tuberculosis H37Rv by alamar blue assay; format: functional
[2] = test system: Mycobacterium tuberculosis; test: Antimicrobial activity against Mycobacterium tuberculosis SRMV2.6 H37Rv by alamar blue assay; format: functional
Acinetobacter baumannii = test: Growth inhibition of Acinetobacter baumannii at 32 ug/ml; format: functional; conditions: read-out: GI
Staphylococcus aureus = test: Growth inhibition of methicillin-resistant Staphylococcus aureus at 32 ug/ml; format: functional; conditions: read-out: GI
Candida albicans = test: Growth inhibition of Candida albicans at 32 ug/ml; format: functional; conditions: read-out: GI
[3] = test system: Mycobacterium tuberculosis; test: Inhibition of Mycobacterium tuberculosis GuaB2 at 50 uM
Klebsiella pneumoniae = test: Growth inhibition of Klebsiella pneumoniae at 32 ug/ml; format: functional; conditions: read-out: GI
Escherichia coli = test: Growth inhibition of Escherichia coli at 32 ug/ml; format: functional; conditions: read-out: GI
[4] = target: Inosine-5'-monophosphate dehydrogenase 2 (Homo sapiens) (UniProt P12268); test: Inhibition of human IMPDH2 at 10 uM
Chain of Inosine-5'-monophosphate dehydrogenase 2 (Homo sapiens) (P12268 2-514 limits assumed): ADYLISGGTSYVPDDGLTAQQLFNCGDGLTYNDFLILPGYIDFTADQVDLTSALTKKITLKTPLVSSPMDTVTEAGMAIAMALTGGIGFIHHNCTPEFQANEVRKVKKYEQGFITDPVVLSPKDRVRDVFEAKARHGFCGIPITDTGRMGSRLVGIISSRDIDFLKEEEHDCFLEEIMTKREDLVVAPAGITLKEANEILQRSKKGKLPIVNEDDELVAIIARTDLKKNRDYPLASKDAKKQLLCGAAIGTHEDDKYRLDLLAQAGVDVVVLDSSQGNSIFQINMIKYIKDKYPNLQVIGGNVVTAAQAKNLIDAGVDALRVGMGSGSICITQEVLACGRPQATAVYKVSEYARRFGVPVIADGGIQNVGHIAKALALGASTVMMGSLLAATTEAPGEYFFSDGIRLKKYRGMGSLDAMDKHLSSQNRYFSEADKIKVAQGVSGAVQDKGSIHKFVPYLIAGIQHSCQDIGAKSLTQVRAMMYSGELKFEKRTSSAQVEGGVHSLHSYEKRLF

Pseudomonas aeruginosa = test: Growth inhibition of Pseudomonas aeruginosa at 32 ug/ml; format: functional; conditions: read-out: GI
Cryptococcus neoformans = test: Growth inhibition of Cryptococcus neoformans var. grubii at 32 ug/ml; format: functional; conditions: read-out: GI
[5] = Inhibition of Mycobacterium tuberculosis GuaB2
[6] = test system: Mycobacterium tuberculosis; test: Antimicrobial activity against Mycobacterium tuberculosis H37Rv in presence of 0.08 to 5 ng/ml anhydrotetracycline-induced guaB2 gene silencing by alamar blue assay; format: functional, organism-based
[7] = Octanol/water partition coefficient , logP of the compound; format: physicochemical

Row | Structure (SMILES) | MIC90 [1] [µM] | further results
1 | Cc1nc2sccc2c(=O)n1NC(=O)Nc1cccc([N+](=O)[O-])c1 | > 100 | –
2 | COc1ccc(NC(=O)CC/C(C)=C/Cc2c(O)c3c(c(C)c2OC)COC3=O)cc1 | > 100 | –
3 | COc1cc(NC(=O)Nn2c(C)nc3sccc3c2=O)cc(OC)c1 | > 100 | –
4 | Cc1nnc(-c2ccc(OCc3cnnn3Cc3cccc(Cl)c3)cc2)o1 | 50 (≈ 19.1 µg/mL) | MIC90 [2]: > 100 µM; inhibition of growth at 32 µg/mL (Acinetobacter baumannii): -12.1%; inhibition of growth at 32 µg/mL (Staphylococcus aureus): 10.3%; inhibition of growth at 32 µg/mL (Candida albicans): -0.27%; inhibition [3]: inactive; inhibition of growth at 32 µg/mL (Klebsiella pneumoniae): 2.15%; inhibition of growth at 32 µg/mL (Escherichia coli): -5.62%; inhibition [4]: 0.1%; inhibition of growth at 32 µg/mL (Pseudomonas aeruginosa): 5.84%; inhibition of growth at 32 µg/mL (Cryptococcus neoformans): -76.2%
5 | O=C(O)CCC(=O)NCc1ccc2c(c1)OCO2 | > 100 | –
6 | O=C(COc1ccc(C(=O)/C=C/c2cccs2)cc1)Nc1ccc2c(c1)COC2=O | > 100 | –
7 | Cc1nc2sccc2c(=O)n1NC(=O)Nc1ccc2c(c1)OCO2 | > 100 | –
8 | Cc1ccc2nc(NC(=O)CCC(=O)O)sc2c1 | > 100 | –
9 | Clc1ccc(Cn2nncc2COc2ccc3ccccc3c2)c(Cl)c1 | > 100 | –
10 | COc1ccc(NC(=O)Nn2c(C)nc3ccsc3c2=O)cc1 | > 100 | –
11 | Cc1ccccc1NC(=S)Nc1ccc(-c2cc(Cl)cc(Cl)c2)cn1 | > 100 | –
12 | CC(C(=O)Nc1ccc2c(c1)COC2=O)c1ccc(C(=O)c2ccccc2)cc1 (centres undefined) | 100 (≈ 38.5 µg/mL) | MIC90 [2]: 100 µM (≈ 38.5 µg/mL); inhibition of growth at 32 µg/mL (Acinetobacter baumannii): 1.89%; inhibition of growth at 32 µg/mL (Staphylococcus aureus): 25.2%; IC50 [5]: 6.2 µM; inhibition of growth at 32 µg/mL (Candida albicans): 5.25%; inhibition [3]: 95.2%; Activity [6]: Active; inhibition of growth at 32 µg/mL (Klebsiella pneumoniae): 15.6%; inhibition of growth at 32 µg/mL (Escherichia coli): -2.97%; inhibition [4]: 23%; inhibition of growth at 32 µg/mL (Pseudomonas aeruginosa): 3.08%; inhibition of growth at 32 µg/mL (Cryptococcus neoformans): -94.7%; logP [7]: 3.67
13 | COc1cc(/C=C/C(=O)c2cccc(OCC(=O)Nc3ccc4c(c3)COC4=O)c2)cc(OC)c1OC | > 100 | –
14 | Cc1nnc(-c2ccc(OCc3cnnn3Cc3ccc(Cl)cc3Cl)cc2)o1 | > 100 | –
15 | O=C(O)CCCC(=O)N1CCn2c(nnc2C(F)(F)F)C1 | > 100 | –
16 | COc1ccc2[nH]c(S(=O)(=O)Cc3ncc(C)c(OC)c3C)nc2c1 [OMEPRAZOLE SULFONE] | > 100 | –
17 | Cc1nc2sccc2c(=O)n1NC(=O)/C=C/c1ccccc1 | > 100 | –
18 | CC(C(=O)Nc1ccc2c(c1)COC2=O)c1cccc(C(=O)c2ccccc2)c1 (centres undefined) | 100 (≈ 38.5 µg/mL) | –
19 | COc1cccc(Cn2nncc2COc2ccc3ccccc3c2)c1 | 50 (≈ 17.3 µg/mL) | MIC90 [2]: > 100 µM; inhibition [3]: 52.4%; inhibition [4]: 24.9%

Row | Structure (SMILES) | MIC90 [1] [µM] | further results
20 | O=C(COc1cccc2ccccc12)Nc1ccc2c(c1)COC2=O | > 100 | –
21 | CC(C(=O)Nc1ccc2c(c1)COC2=O)c1ccc(-c2ccccc2)c(F)c1 (centres undefined) | > 100 | –
22 | Clc1ccc(Cn2nncc2COc2ccc3ccccc3c2)cc1 | > 100 | –
23 | Cc1nnc(-c2ccc(OCc3cnnn3Cc3ccccc3F)cc2)o1 | 100 (≈ 36.5 µg/mL) | MIC90 [2]: > 100 µM; inhibition of growth at 32 µg/mL (Acinetobacter baumannii): -8.76%; inhibition of growth at 32 µg/mL (Staphylococcus aureus): 7.55%; inhibition of growth at 32 µg/mL (Candida albicans): 2.24%; inhibition [3]: 71%; inhibition of growth at 32 µg/mL (Klebsiella pneumoniae): -2.49%; inhibition of growth at 32 µg/mL (Escherichia coli): -5.41%; inhibition [4]: 0.1%; inhibition of growth at 32 µg/mL (Pseudomonas aeruginosa): 0.96%; inhibition of growth at 32 µg/mL (Cryptococcus neoformans): -88.2%; logP [7]: 2.5 to 3.5
24 | O=C(COc1ccc(C(=O)/C=C/c2ccc([N+](=O)[O-])cc2)cc1)Nc1ccc2c(c1)COC2=O | > 100 | –
25 | CC1CC(NS(=O)(=O)c2ccc(NC(=O)CCC(=O)O)cc2)=NO1 (centres undefined) | > 100 | –
26 | O=C(O)/C=C\C(=O)NCc1ccccc1 | > 100 | –
27 | N#Cc1ccc(Cn2nncc2COc2ccc3ccccc3c2)cc1 | > 100 | –
28 | COc1ccc(NC(=O)Nn2c(C)nc3sccc3c2=O)cc1 | > 100 | –
29 | O=C(O)CNC(=O)[C@@H]1C[C@H]1c1ccccc1 | > 100 | –
30 | Cc1ccc(CNC(=O)/C=C\C(=O)O)cc1 | > 100 | –
31 | COc1ccc2[nH]c(S(=O)(=O)Cc3c(C)c(OC)c(C)c[n+]3[O-])nc2c1 | > 100 | –
32 | COc1ccc(NC(=O)Nc2ccc(-c3cnco3)cc2)cc1 | > 100 | –
33 | Cc1cc(OCC(=O)Nc2ccc3c(c2)COC3=O)ccc1[N+](=O)[O-] | > 100 | –
34 | CC(C)Cc1ccc(C(C)C(=O)Nc2ccc3c(c2)COC3=O)cc1 (centres undefined) | > 100 | –
35 | Cc1nnc(-c2ccc(OCc3cnnn3Cc3ccc(F)cc3)cc2)o1 | > 100 | –
36 | O=C1OCc2cc(NS(=O)(=O)c3ccc([N+](=O)[O-])cc3)ccc21 | > 100 | –
37 | O=C(O)/C=C\C(=O)NC12CC3CC(CC(C3)C1)C2 | > 100 | –
